Test results reported in ChEMBL document CHEMBL1131798, “Synthesis and cytotoxicity of analogues of the antibiotic BE 10988 inhibitors of DNA topoisomerase II” (Bioorg Med Chem Lett, 1999).

Tested on: L1210
Test: Antiproliferative activity using the murine L1210 leukemia cell line
Assay type: functional, cell-based
Details: Mus musculus

| IC50 [µM] | Compound |
| --- | --- |
| > 10 | COc1ccc(OC)c2c1c(-c1nc(C(N)=O)cs1)cn2C |
| 0.8 | Cn1cc(-c2nc(C(N)=O)cs2)c2c1C(=O)C=CC2=O |
| 6.5 | Cn1cc(C(=O)NCCN2CCOCC2)c2c1C(=O)C=CC2=O |
| > 100 | COc1ccc(OC)c2c1c(C(=O)NCCN1CCOCC1)cn2C |
